Laboratory results as given in EPA's ToxRefDB 2.

Assays:
[1] = system: mouse; settings: Subchronic oral toxicity in rodents, b6c3f1, Water, dose end: 3 month, group: systemic
[2] = system: rat; settings: Subchronic oral toxicity in rodents, fischer, Water, dose end: 3 month, group: systemic, systemic / clinical chemistry / alanine aminotransferase (alt/sgpt) / alanine aminotransferase (alt/sgpt) + systemic / clinical chemistry / …
[3] = system: mouse; settings: Combined chronic toxicity/carcinogenicity, b6c3f1, Oral, Water, dose end: 105 week, group: systemic
[4] = system: rat; settings: Combined chronic toxicity/carcinogenicity, fischer, Oral, Water, dose end: 105 week, group: systemic
[5] = system: rat; settings: Prenatal developmental toxicity study, sprague dawley, Oral, Gavage/Intubation, dose end: 15 GD
[6] = system: rat; settings: Subchronic dermal toxicity, sprague dawley, Topical, dose end: 91 day, group: systemic, systemic / in life observation / clinical signs / erythema
[7] = system: rabbit; settings: Prenatal developmental toxicity study; new zealand white; Oral; Gavage/Intubation; dose end: 18 GD; group: maternal; systemic / in life observation / clinical signs / general motor disturbances + systemic / in life observation / clinical signs / partial …
[8] = system: mouse; settings: Carcinogenicity, cd1, Oral, Feed, dose end: 104 week, group: systemic
[9] = system: rat; settings: Prenatal developmental toxicity study, sprague dawley, Oral, Gavage/Intubation, dose end: 15 GD; remark: listed apart in the source
[10] = system: rat; settings: Multigenerational reproductive toxicity study; sprague dawley; Oral; Feed; dose end: 2 generation; group: offspring; systemic / in life observation / body weight / offspring (pup) weight
[11] = systemic / hematology / erythrocyte (rbc) count differential / erythrocyte (rbc) + systemic / hematology / hemoglobin (hgb) / hemoglobin (…
[12] = systemic / hematology / mean corpuscular hemoglobin (mch) / mean corpuscular hemoglobin (mch) + systemic / pathology microscopic / intestine…
[13] = systemic / pathology microscopic / intestine small / adenoma + systemic / pathology microscopic / intestine small / carcinoma + systemic / …
[14] = systemic / pathology microscopic / intestine small / hyperplasia + systemic / pathology microscopic / lymph node / infiltration cellular + …
[15] = systemic / pathology microscopic / liver / inflammation
[16] = systemic / pathology microscopic / oral mucosa / squamous cell carcinoma + systemic / clinical chemistry / alanine aminotransferase (alt/…
[17] = group: developmental, developmental / developmental malformation / bone / bent + developmental / developmental malformation / bone / unossified + developmental / …
[18] = group: maternal, systemic / in life observation / body weight / body weight + systemic / in life observation / clinical signs / reduced activity + systemic…
[19] = systemic / in life observation / body weight / body weight gain + systemic / pathology microscopic / intestine small / hyperplasia + …
[20] = group: developmental, developmental / developmental malformation / bone / absent + developmental / developmental malformation / bone / fused + developmental / …
[21] = group: maternal, systemic / in life observation / clinical signs / alopecia + systemic / in life observation / clinical signs / defecation (diarrhea) + …

For O.O.[Na+].[Na+].[O]=[Cr](=[O])([O-])[O][Cr](=[O])(=[O])[O-] [Sodium dichromate(VI) dihydrate], which LOAEL [1, 11] is on record?
Its LOAEL is over 80 mg/kg/day.

And the NOAEL [1, 11]?
The NOAEL was at least 80 mg/kg/day.

What about the LEL [1, 12] of the same molecule?
Its LEL is 9 mg/kg/day.

And the NEL [1, 12]?
The NEL was under 9 mg/kg/day.

What about the LEL [2] of the same molecule?
The LEL was 5 mg/kg/day.

And the LOAEL [2]?
The LOAEL was over 60 mg/kg/day.

And the NEL [2]?
The NEL was under 5 mg/kg/day.

What about the NOAEL [2] of the same molecule?
The NOAEL was at least 60 mg/kg/day.

What about the LOAEL [3, 13] of the same molecule?
The LOAEL was over 17 mg/kg/day.

What about the NOAEL [3, 13] of the same molecule?
The NOAEL was at least 17 mg/kg/day.

What about the LEL [3, 14] of the same molecule?
The LEL was 1.1 mg/kg/day.

What about the NEL [3, 14] of the same molecule?
Its NEL is under 1.1 mg/kg/day.

What about the LEL [4, 15] of the same molecule?
Its LEL is 0.7 mg/kg/day.

And the NEL [4, 15]?
Its NEL is under 0.7 mg/kg/day.

And the LOAEL [4, 16]?
Its LOAEL is over 17 mg/kg/day.

And the NOAEL [4, 16]?
The NOAEL was at least 17 mg/kg/day.

N#CN=C([S-])[S-].[Na+].[Na+] [Disodium cyanodithioimidocarbonate] was tested. Which LOAEL ([5]; group: developmental, developmental / developmental malformation / bone / bent + developmental / developmental malformation / bone / unossified) did it give?
Its LOAEL is 18 mg/kg/day.

What about the LEL [5, 17] of the same molecule?
Its LEL is 18 mg/kg/day.

What about the NEL [5, 17] of the same molecule?
Its NEL is 6 mg/kg/day.

And the NOAEL [5, 17]?
The NOAEL was 6 mg/kg/day.

What about the LOAEL ([5]; group: maternal, systemic / in life observation / body weight / body weight + systemic / in life observation / clinical signs / reduced activity) of the same molecule?
Its LOAEL is 18 mg/kg/day.

What about the LEL [5, 18] of the same molecule?
The LEL was 18 mg/kg/day.

And the NEL [5, 18]?
Its NEL is 6 mg/kg/day.

What about the NOAEL [5, 18] of the same molecule?
Its NOAEL is 6 mg/kg/day.

And the LEL [6]?
Its LEL is 25 mg/kg/day.

What about the LOAEL [6] of the same molecule?
Its LOAEL is 25 mg/kg/day.

What about the NEL [6] of the same molecule?
The NEL was under 25 mg/kg/day.

And the NOAEL [6]?
The NOAEL was under 25 mg/kg/day.

What about the LEL [7] of the same molecule?
The LEL was 10 mg/kg/day.

And the LOAEL [7]?
Its LOAEL is 10 mg/kg/day.

And the NEL [7]?
Its NEL is 3 mg/kg/day.

What about the NOAEL [7] of the same molecule?
The NOAEL was 3 mg/kg/day.

For N#CSCSc1nc2ccccc2s1 [2-(Thiocyanomethylthio)benzothiazole], which LOAEL ([8]; systemic / in life observation / body weight / body weight gain + systemic / pathology microscopic / intestine small / hyperplasia) is on record?
Its LOAEL is 148 mg/kg/day.

And the LEL [8, 19]?
Its LEL is 148 mg/kg/day.

And the NEL [8, 19]?
Its NEL is 49.3 mg/kg/day.

And the NOAEL [8, 19]?
Its NOAEL is 49.3 mg/kg/day.

What about the LEL [9, 20] of the same molecule?
Its LEL is 126 mg/kg/day.

And the LOAEL [9, 20]?
Its LOAEL is 126 mg/kg/day.

What about the NEL [9, 20] of the same molecule?
The NEL was 76.5 mg/kg/day.

And the NOAEL [9, 20]?
Its NOAEL is 76.5 mg/kg/day.

What about the LEL [9, 21] of the same molecule?
The LEL was 76.5 mg/kg/day.

And the LOAEL [9, 21]?
Its LOAEL is 76.5 mg/kg/day.

What about the NEL [9, 21] of the same molecule?
The NEL was 25.1 mg/kg/day.

And the NOAEL [9, 21]?
The NOAEL was 25.1 mg/kg/day.

What about the LEL [10] of the same molecule?
The LEL was 38.4 mg/kg/day.

And the LOAEL [10]?
Its LOAEL is 38.4 mg/kg/day.

And the NEL [10]?
The NEL was 9.6 mg/kg/day.

What about the NOAEL [10] of the same molecule?
Its NOAEL is 9.6 mg/kg/day.
